Source: PubChem BioAssay (NCI)
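In this assay, cells in 96-well plates receive the compound at five concentrations for 48 hours. Endpoints are linearly interpolated between the surrounding concentrations. At the GI50, growth is halved. TGI denotes the concentration required for complete inhibition of growth.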

Key:
Experiment in all cases: DTP human tumour cell line panel, 48 h
LOX IMVI melanoma = tested on: LOX IMVI melanoma
DU-145 prostate = tested on: DU-145 prostate
HS 578T breast = tested on: HS 578T breast
RXF 393 renal = tested on: RXF 393 renal
HCT-116 colon = tested on: HCT-116 colon
HT29 colon = tested on: HT29 colon
SR leukemia = tested on: SR leukemia
NCI-H226 lung = tested on: NCI-H226 lung
SF-539 CNS = tested on: SF-539 CNS
SN12C renal = tested on: SN12C renal

Row | Structure (SMILES) | GI50 (LOX IMVI melanoma) [µM] | TGI (LOX IMVI melanoma) [µM] | GI50 (DU-145 prostate) [µM] | TGI (DU-145 prostate) [µM] | GI50 (HS 578T breast) [µM] | TGI (HS 578T breast) [µM] | GI50 (RXF 393 renal) [µM] | TGI (RXF 393 renal) [µM] | GI50 (HCT-116 colon) [µM] | TGI (HCT-116 colon) [µM] | GI50 (HT29 colon) [µM] | TGI (HT29 colon) [µM] | GI50 (SR leukemia) [µM] | TGI (SR leukemia) [µM] | GI50 (NCI-H226 lung) [µM] | TGI (NCI-H226 lung) [µM] | GI50 (SF-539 CNS) [µM] | TGI (SF-539 CNS) [µM] | GI50 (SN12C renal) [µM] | TGI (SN12C renal) [µM]
1 | C[C@@]12CCC[C@@](C)(C(=O)O)C1CC[C@]13C=C(CO)[C@](O)(CCC12)C3 (stereo not given in full) | > 100 | > 100 | > 100 | > 100 | > 100 | > 100 | > 100 | > 100 | > 100 | > 100 | > 100 | > 100 | > 100 | > 100 | > 100 | > 100 | > 100 | > 100 | > 100 | > 100
2 | O=C1OCC2=C1C(c1cccc([N+](=O)[O-])c1)c1cc3c(cc1N2CCO)CCC3 (stereo not given) | 0.286 | 8.29 | 0.19 | > 24.5 | 0.18 | > 50 | 0.123 | > 50 | 0.148 | 16 | 0.176 | 21.6 | 0.0554 | > 36.3 | 1.77 | 49.4 | 0.11 | 0.38 | 0.339 | > 39.9
3 | C=C1C(=O)O[C@H]2[C@H]1CC/C(COC(=O)NCc1c[nH]c3ccc(OC)cc13)=C\CC[C@@]1(C)O[C@@H]21 | 1.19 | 2.52 | 1.35 | 2.83 | 2.75 | 16.2 | 1.18 | 2.52 | 0.268 | 1.22 | 1.02 | 2.71 | 0.331 | 4.38 | 14.9 | 35.5 | 1.53 | 3.02 | 1.42 | 5.21
4 | COc1c(Nc2ncc(Cl)c(N[C@@H]3[C@H]4C=CC(C4)[C@@H]3C(N)=O)n2)ccc2c1CC[C@@H](N1CCOCC1)CC2 | 2.11 | 6.23 | 4.88 | 27.2 | 1.88 | 9 | 1.64 | 6.54 | 2.52 | 10.3 | 2.68 | 10.6 | 0.43 | 5.64 | 3.81 | 30.2 | 2.3 | 8.01 | 3.87 | 29.2
5 | Nc1nn(C(=O)Nc2ccc(Cc3ccccc3)cc2)c2ccc(Cl)cc12 | 0.137 | 20.1 | 11.7 | 33.8 | 14.4 | 44.3 | 15.1 | 34.1 | 0.354 | 24.2 | 3.54 | 27.3 | 12.6 | 26.5 | 13.5 | > 81.7 | 1.29 | 7.66 | 14.2 | 48.1
6 | O=C(Nc1cccnc1)c1cccs1 | > 100 | > 100 | 4.6 | > 100 | > 100 | > 100 | 7.36 | > 100 | 1.89 | > 100 | 2.39 | > 100 | 8.47 | > 100 | 41 | > 100 | 4.51 | > 100 | 25.8 | > 100
